PubChem BioAssay AID248 (DTP/NCI, 2004)
“And” between values parts separate entries of the source, which are not always exact repeats. Identical values can stand only once. Inconclusive results and toxic doses are left out.

Tested on: L1210 leukemia ip in BDF1 mice, survival T/C
Test: NCI In Vivo Anticancer Drug Screen. Data for tumor model L1210 Leukemia (intraperitoneal) in B6D2F1 (BDF1) mice
Conditions: endpoint: mean survival time, higher = longer survival
Outline: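 Tumor cells were implanted, animals were treated, and survival was followed. The result divides the treated measurement by the vehicle-control measurement.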

[1] = dose: 50.0 mg/kg/injection, schedule: Q01DX001 (ip), vehicle: saline
[2] = dose: 100.0 mg/kg/injection, schedule: Q01DX001 (ip), vehicle: saline
[3] = dose: 200.0 mg/kg/injection, schedule: Q01DX001 (ip), vehicle: saline
[4] = dose: 400.0 mg/kg/injection, schedule: Q01DX001 (ip), vehicle: saline
[5] = dose: 100.0 mg/kg/injection, schedule: Q01DX009 (ip), vehicle: saline with Tween-80
[6] = dose: 200.0 mg/kg/injection, schedule: Q01DX009 (ip), vehicle: saline with Tween-80
[7] = dose: 100.0 mg/kg/injection, schedule: Q04DX003 (ip), vehicle: Klucel (hydroxypropylcellulose) (HPC)
[8] = dose: 200.0 mg/kg/injection, schedule: Q04DX003 (ip), vehicle: Klucel (hydroxypropylcellulose) (HPC)
[9] = dose: 400.0 mg/kg/injection, schedule: Q04DX003 (ip), vehicle: Klucel (hydroxypropylcellulose) (HPC)
[10] = dose: 100.0 mg/kg/injection, schedule: Q04DX003 (ip), vehicle: saline
[11] = dose: 200.0 mg/kg/injection, schedule: Q04DX003 (ip), vehicle: saline
[12] = dose: 100.0 mg/kg/injection, schedule: Q01DX001 (ip), vehicle: carboxymethylcellulose (CMC)
[13] = dose: 400.0 mg/kg/injection, schedule: Q01DX001 (ip), vehicle: carboxymethylcellulose (CMC)
[14] = dose: 100.0 mg/kg/injection, schedule: Q01DX009 (ip), vehicle: Klucel (hydroxypropylcellulose) (HPC)
[15] = dose: 200.0 mg/kg/injection, schedule: Q01DX009 (ip), vehicle: Klucel (hydroxypropylcellulose) (HPC)
[16] = dose: 400.0 mg/kg/injection, schedule: Q01DX009 (ip), vehicle: Klucel (hydroxypropylcellulose) (HPC)

SMILES: O=[N+]([O-])c1cccc(/C=[N+](\[O-])c2ccccc2)c1
- T/C [1]: 100 % of control
- T/C [2]: 96 % of control
- T/C [3]: 100 % of control
- T/C [4]: 102 % of control

SMILES: ClCOCCCCOCCl
- T/C (dose: 50.0 mg/kg/injection, schedule: Q01DX009 (ip), vehicle: saline): 114 % of control
- T/C (dose: 100.0 mg/kg/injection, schedule: Q01DX009 (ip), vehicle: saline): 87 % of control

SMILES: O=[N+]([O-])/C(N=Nc1ccc(Br)cc1)=N\Nc1ccc(Br)cc1
- T/C (dose: 75.0 mg/kg/injection, schedule: Q01DX001 (ip), vehicle: acetone): 87 % of control
- T/C (dose: 150.0 mg/kg/injection, schedule: Q01DX001 (ip), vehicle: acetone): 89 % of control

SMILES: CC(C)(C)c1ccc(OCC(=O)O)c(Cl)c1
- T/C [5]: 91 % of control
- T/C [6]: 101 % of control

SMILES: CCN=C(N)c1ccc(N=C(N)c2cccc(C(N)=Nc3ccc(C(N)=NCC)cc3)c2)cc1
- T/C (dose: 3.75 mg/kg/injection, schedule: Q01DX Z (ip), vehicle: saline): 104 % of control
- T/C (dose: 15.0 mg/kg/injection, schedule: Q01DX Z (ip), vehicle: saline): 120 % of control

SMILES: C(#[C][Sn]([C]#Cc1ccccc1)([C]#Cc1ccccc1)[C]#Cc1ccccc1)c1ccccc1
- T/C (dose: 50.0 mg/kg/injection, schedule: Q01DX009 (ip), vehicle: saline with Tween-80): 92 % of control
- T/C [5]: 103 % of control
- T/C [6]: 95 % of control

SMILES: COC(=O)CCC(=O)c1cc(OC)c2cc3ccccc3cc2c1OC
- T/C (dose: 100.0 mg/kg/injection, schedule: Q01DX001 (ip), vehicle: other): 96 % of control
- T/C (dose: 200.0 mg/kg/injection, schedule: Q01DX001 (ip), vehicle: other): 96 % of control
- T/C (dose: 400.0 mg/kg/injection, schedule: Q01DX001 (ip), vehicle: other): 100 % of control

SMILES: CCOC(=O)/C(=C/c1ccc(C)cc1)P(=O)(OCC)OCC
- T/C [1]: 101 % of control
- T/C [2]: 101 % of control

SMILES: CCNC(=O)NCC
- T/C [1]: 109 % of control
- T/C [2]: 101 % of control
- T/C [3]: 103 % of control
- T/C [4]: 97 % of control

SMILES: CCC(C)n1c(C)cc(=O)n1C(C)CC (configuration not stated)
- T/C (dose: 15.0 mg/kg/injection, schedule: Q01DX001 (ip), vehicle: saline): 101 % of control
- T/C (dose: 30.0 mg/kg/injection, schedule: Q01DX001 (ip), vehicle: saline): 97 % of control
- T/C (dose: 60.0 mg/kg/injection, schedule: Q01DX001 (ip), vehicle: saline): 101 % of control

SMILES: O/N=C\c1ccccc1Cl
- T/C [5]: 100 % of control
- T/C [7]: 100 % of control
- T/C [6]: 105 % of control
- T/C [8]: 100 % of control
- T/C [9]: 96 % of control

SMILES: CCN=C(c1ccc(NC(=O)c2ccc(C(=O)Nc3ccc(C(=NCC)N(CC)CC)cc3)c(Cl)c2)cc1)N(CC)CC
- T/C (dose: 0.94 mg/kg/injection, schedule: Q01DX Z (ip), vehicle: carboxymethylcellulose (CMC)): 94 % of control

SMILES: [CH3][Sb]1([CH3])([I])[CH2]CCC[CH2]1
- T/C [10]: 97 % of control
- T/C [11]: 97 % of control

SMILES: Cc1ccc(C2=CCCCC2)cc1
- T/C (dose: 50.0 mg/kg/injection, schedule: Q01DX001 (ip), vehicle: carboxymethylcellulose (CMC)): 96 % of control
- T/C [12]: 96 % of control
- T/C [13]: 94 % of control

SMILES: O=c1/c(=C\c2ccccc2Cl)sc2n1CCN=2
- T/C [2]: 100 % of control
- T/C [3]: 105 % of control
- T/C [4]: 105 % of control

SMILES: CCOC1=CCN(S(=O)(=O)c2ccc(C)cc2)c2ccc(OC)cc21
- T/C [14]: 100 % of control
- T/C [7]: 104 % of control
- T/C [15]: 96 % of control
- T/C [8]: 94 % of control
- T/C [16]: 89 % of control
- T/C [9]: 98 % of control

SMILES: CC(C)(C)CC(C)(C)c1ccc(OCCOCCOc2ccc([N+](=O)[O-])cc2)cc1
- T/C (dose: 100.0 mg/kg/injection, schedule: Q01DX009 (ip), vehicle: saline sonified): 94 % of control
- T/C (dose: 200.0 mg/kg/injection, schedule: Q01DX009 (ip), vehicle: saline sonified): 96 % of control
- T/C (dose: 400.0 mg/kg/injection, schedule: Q01DX009 (ip), vehicle: saline sonified): 94 % of control

SMILES: CCOC(=O)CCC(NC(=O)OCc1ccccc1)C(=O)O (configuration not stated)
- T/C [7]: 91 % of control
- T/C [8]: 89 % of control

SMILES: O=P(O)(c1ccccc1)c1ccc(I)cc1
- T/C [2]: 100 % of control
- T/C [10]: 100 % of control
- T/C [3]: 96 % of control
- T/C [11]: 96 % of control
- T/C [4]: 98 % of control
- T/C (dose: 400.0 mg/kg/injection, schedule: Q04DX003 (ip), vehicle: saline): 94 % of control

SMILES: CCOC(=O)CCCc1ccc(N=NN(C)C(C)CC)cc1 (configuration not stated)
- T/C [12]: 111 % of control
- T/C (dose: 200.0 mg/kg/injection, schedule: Q01DX001 (ip), vehicle: carboxymethylcellulose (CMC)): 102 % of control
- T/C [13]: 107 % of control

SMILES: CCc1ccc(N)cc1
- T/C (dose: 10.0 mg/kg/injection, schedule: Q01DX001 (ip), vehicle: saline): 102 % of control
- T/C (dose: 20.0 mg/kg/injection, schedule: Q01DX001 (ip), vehicle: saline): 102 % of control
- T/C (dose: 40.0 mg/kg/injection, schedule: Q01DX001 (ip), vehicle: saline): 111 % of control

SMILES: Nc1cc(C(=O)Nc2ccc(CCNC3=NCCN3)cc2)ccc1C(=O)Nc1ccc(CCNC2=NCCN2)cc1
- T/C (dose: 0.26 mg/kg/injection, schedule: Q01DX001 (ip), vehicle: water): 103 % of control
- T/C (dose: 0.4 mg/kg/injection, schedule: Q01DX001 (ip), vehicle: water): 101 % of control
- T/C (dose: 0.6 mg/kg/injection, schedule: Q01DX001 (ip), vehicle: water): 103 % of control
- T/C (dose: 0.93 mg/kg/injection, schedule: Q01DX001 (ip), vehicle: water): 101 % of control
- T/C (dose: 0.93 mg/kg/injection, schedule: Q01DX015 (ip), vehicle: water): 101 % of control
- T/C (dose: 1.87 mg/kg/injection, schedule: Q01DX015 (ip), vehicle: water): 119 % of control
- T/C (dose: 3.75 mg/kg/injection, schedule: Q01DX015 (ip), vehicle: water): 156 % of control
- T/C (dose: 4.8 mg/kg/injection, schedule: Q01DX Z (oral), vehicle: water): 109 % of control
- T/C (dose: 7.5 mg/kg/injection, schedule: Q01DX015 (ip), vehicle: water): 216 % of control
- T/C (dose: 7.5 mg/kg/injection, schedule: Q01DX Z (ip), vehicle: water): 265 % of control
- T/C (dose: 7.5 mg/kg/injection, schedule: Q01DX Z (oral), vehicle: water): 113 % of control
- T/C (dose: 11.0 mg/kg/injection, schedule: Q01DX Z (oral), vehicle: water): 111 % of control
- T/C (dose: 15.0 mg/kg/injection, schedule: Q01DX015 (ip), vehicle: water): 97 % of control
- T/C (dose: 16.0 mg/kg/injection, schedule: Q01DX Z (oral), vehicle: water): 104 % of control and 119 % of control
- T/C (dose: 23.0 mg/kg/injection, schedule: Q01DX Z (oral), vehicle: water): 104 % of control
- T/C (dose: 35.0 mg/kg/injection, schedule: Q01DX Z (oral), vehicle: water): 102 % of control
- T/C (dose: 55.0 mg/kg/injection, schedule: Q01DX Z (oral), vehicle: water): 99 % of control and 115 % of control
- T/C (dose: 85.0 mg/kg/injection, schedule: Q01DX Z (oral), vehicle: water): 114 % of control
- T/C (dose: 125.0 mg/kg/injection, schedule: Q01DX Z (oral), vehicle: water): 118 % of control
- T/C (dose: 190.0 mg/kg/injection, schedule: Q01DX Z (oral), vehicle: water): 104 % of control and 113 % of control

SMILES: COC(C)C(O)(C(N)=O)C(C)C (configuration not stated)
- T/C [14]: 98 % of control
- T/C [7]: 101 % of control
- T/C [15]: 98 % of control
- T/C [8]: 101 % of control
- T/C [16]: 102 % of control
- T/C [9]: 97 % of control

SMILES: COC(=O)C1(C)CCC2(C)CCC3(C)C4=CC=C5C(=CC(=O)C(O)=C5C)C4(C)CCC3(C)C2C1 (configuration not stated)
- T/C (dose: 37.5 mg/kg/injection, schedule: Q01DX001 (sc), vehicle: steriod suspending solution): 104 % of control
- T/C (dose: 75.0 mg/kg/injection, schedule: Q01DX001 (sc), vehicle: steriod suspending solution): 98 % of control
- T/C (dose: 150.0 mg/kg/injection, schedule: Q01DX001 (sc), vehicle: steriod suspending solution): 98 % of control
- T/C (dose: 300.0 mg/kg/injection, schedule: Q01DX001 (sc), vehicle: steriod suspending solution): 95 % of control

SMILES: O=[N+]([O-])c1ccc(N/N=C2\CCCc3c2ccc2ccccc32)c([N+](=O)[O-])c1
- T/C [2]: 97 % of control
- T/C [3]: 92 % of control
- T/C [4]: 103 % of control
